Test results: ChEMBL document CHEMBL5579870, “Integrating Neuroprotective and Anti-inflammatory Strategies in the Development of PI3K Inhibitors for Enhanced Cancer Therapy” (ACS Med Chem Lett, 2024)

Assays:
T47D = experiment: Antiproliferative activity against human T47D cells expressing PI3Kalpha H1047R mutant assessed as inhibition of cell proliferation measured after 72 hrs by CellTiter-Glo reagent based assay; format: functional
[1] = Cytotoxicity against human SK-BR-3 cells expressing wild type PI3Kalpha assessed as inhibition of cell proliferation measured after 72 hrs by CellTiter-Glo reagent based assay; format: toxicity
[2] = AUC(last) in CD-1 mouse at 10 mg/kg, po by LC/MS/MS analysis; format: ADME, organism-based; details: in vivo
[3] = Oral bioavailability in CD-1 mouse at 10 mg/kg by LC/MS/MS analysis; format: ADME, organism-based; details: in vivo

Row | SMILES | EC50 (T47D) [nM] | AUC(0-t) [2] [ng·h/mL] | bioavailability [3] [%] | EC50 at 72 h [1] [nM]
1 | Cc1cc(C(C)Nc2ccc(F)cc2C(=O)O)c2nc(N3CCN(CC(F)(F)F)CC3)n(C)c(=O)c2c1 (stereo not drawn) | 1 | – | – | 2000
2 | CC(Nc1ccc(F)cc1C(=O)O)c1cc(F)cc2c(=O)n(C)c(N3CCN(CC(F)(F)F)CC3)nc12 (stereo not drawn) | 1 | – | – | > 15000
3 | Cc1cc(C(C)Nc2ccccc2C(=O)O)c2nc(N3CC[Si](C)(C)CC3)n(C)c(=O)c2c1 (stereo not drawn) | 500 | – | – | 2000
4 | CC(Nc1ccccc1C(=O)O)c1cc(C(F)(F)F)cc2c(=O)n(C)c(N3CCN(CC(F)(F)F)CC3)nc12 (stereo not drawn) | 500 | – | – | 2000

The next lines start with results.

Row | EC50 (T47D) [nM] | AUC(0-t) [2] [ng·h/mL] | bioavailability [3] [%] | SMILES | EC50 at 72 h [1] [nM]
5 | 1 | – | – | Cc1cc(C(C)Nc2ccc(Cl)cc2C(=O)O)c2nc(N3Cc4ccc(F)cc4C3)n(C)c(=O)c2c1 (stereo not drawn) | 2000
6 | 1 | 10700 | 61 | Cc1cc(C(C)Nc2ccc(F)cc2C(=O)O)c2nc(N3CCC(C)(C)CC3)n(C)c(=O)c2c1 (stereo not drawn) | 2000
7 | 500 | – | – | CC(Nc1ccccc1C(=O)O)c1cc(Cl)cc2c(=O)n(C)c(N3CCN(CC(F)(F)F)CC3)nc12 (stereo not drawn) | > 15000
8 | 1 | – | – | Cc1cc(C(C)Nc2ccccc2C(=O)O)c2nc(N3Cc4ccc(C#N)cc4C3)n(C)c(=O)c2c1 (stereo not drawn) | > 15000
